Laboratory results from patent US9523100B2, “Pesticidal compositions and related methods” (DOW AGROSCIENCES LLC, priority 2013, dated 2016).

Legend:
[1] = tested on: Sweetpotato Whitefly-Crawler (WF) (Bemisia tabaci) (BEMITA); experiment: Insecticidal test for Sweetpotato Whitefly-Crawler (WF) in foliar spray assay on cotton plants; type: in vivo; conditions: 216 h, 200 ppm foliar spray on cotton plants, graded after 9 days, Abbott corrected % control, read-out: WF 200 ppm, % Control (or Mortality) rating
Excerpt: Insecticidal Test for Sweetpotato Whitefly-Crawler (WF) (Bemisia tabaci) (BEMITA) in Foliar Spray Assay
The sweetpotato whitefly (Bemisia tabaci) has been reported as a serious pest of cultivated crops world-wide. It has an extremely wide host range attacking more than 500 species of plants from 63 plant families. Weeds often serve as alternate hosts of crop pests. Direct feeding damage is caused by the piercing and sucking sap from the foliage of plants. This feeding causes weakening and early wilting of the plant and reduces the plant growth rate and yield Indirect damage results by the accumulation of honeydew produced by the whiteflies. Honeydew serves as a substrate for the growth of black sooty mold on leaves and fruit reducing photosynthesis and lessens the market value of the plant or yield. […] The sweetpotato whitefly is considered the most common and important whitefly vector of plant viruses worldwide.
Cotton plants (Gossypium hirsutum) grown in 3-inch pots, with 1 small (4-5 cm) true leaves, were used as test substrate. The plants were infested with 200-400 whitefly eggs 4-5 days prior to chemical application. Four pots with individual plants were used for each treatment. Test compounds (2 mg) were dissolved in 1 mL of acetone solvent, forming stock solutions of 2000 ppm test compound. The stock solutions were diluted 10× with 0.025% Tween 20 in water (diluents) to obtain the solution at 200 ppm test compound. A hand-held aspirator-type sprayer was used for spraying a solution to both sides of cotton leaves until runoff. Reference plants (solvent check) were sprayed with the diluent only containing 10% by volume of acetone solvent. Treated plants were held in a holding room for 9 days at approximately 25° C. and ambient relative humidity (RH) prior to grading. Evaluation was conducted by counting the number of live 3-4 nymph stage per plant under a microscope. Percent control was measured by using Abbott's correction formula (W. S. Abbott, “A Method of Computing the Effectiveness of an Insecticide” J. Econ. Entomol. 18 (1925), pp. 265-267) as follows.
Biological Data for Green Peach Aphid (GPA) (MYZUPE) and Sweetpotato Whitefly-Crawler (WF) (BEMITA)” (see table section). Corrected % Control=100*(X−Y)/X
X=No. of live nymphs on solvent check plants and
Y=No. of live nymphs on treated plants
(§1) The mortality efficiency of the pesticidal compounds against GPA and WF insects was determined after treatment.

[2] = tested on: Green Peach Aphid (GPA) (Myzus persicae) (MYZUPE); experiment: Bioassay for Green Peach Aphid (GPA), foliar spray on cabbage seedlings; type: in vivo; conditions: 72 h, 200 ppm foliar spray on cabbage seedlings, graded after three days, Abbott corrected % control, read-out: GPA 200 ppm, % Control (or Mortality) rating
Excerpt: Bioassay for Green Peach Aphid (GPA) (Myzus persicae) (MYZUPE)
The green peach aphid (Myzus persicae) is the most significant aphid pest of peach trees, causing decreased growth, shriveling of the leaves, and the death of various tissues. It is also hazardous because it acts as a vector for the transport of plant viruses, such as potato virus Y and potato leafroll virus to members of the nightshade/potato family Solanaceae, and various mosaic viruses to many other food crops. GPA attacks such plants as broccoli, burdock, cabbage, carrot, cauliflower, daikon, eggplant, green beans, lettuce, macadamia, papaya, peppers, sweet potatoes, tomatoes, watercress, and zucchini, among other plants GPA also attacks many ornamental crops such as carnation, chrysanthemum, flowering white cabbage, poinsettia, and roses. GPA has developed resistance to many pesticides.
Cabbage seedlings grown in 3-inch pots, with 2-3 small (3-5 cm) true leaves, were used as test substrate. The seedlings were infested with 20-50 GPA (wingless adult and nymph stages) one day prior to chemical application. Four pots with individual seedlings were used for each treatment. Test compounds (2 mg) were dissolved in 2 mL of acetone/methanol (1:1) solvent, forming stock solutions of 1000 ppm test compound. The stock solutions were diluted 5× with 0.025% Tween 20 in water to obtain the solution at 200 ppm test compound. A hand-held aspirator-type sprayer was used for spraying a solution to both sides of […] leaves until runoff. Reference plants (solvent check) were sprayed with the diluent only containing 20% by volume of acetone/methanol (1:1) solvent. Treated plants were held in a holding room for three days at approximately 25° C. and ambient relative humidity (RH) prior to grading. Evaluation was conducted by counting the number of live aphids per plant under a microscope. Percent control was measured by using Abbott's correction formula (W. S. Abbott, “A Method of Computing the Effectiveness of an Insecticide” J. Econ. Entomol. 18 (1925), pp. 265-267) as follows. Corrected % Control=100*(X−Y)/X
X=No. of live aphids on solvent check plants and
Y=No. of live aphids on treated plants
Biological Data for Green Peach Aphid (GPA) (MYZUPE) and Sweetpotato Whitefly-Crawler (WF) (BEMITA)” (see table section).
as §1

| SMILES | mortality at 200 ppm [1] [%] | mortality at 200 ppm [2] [%] |
| --- | --- | --- |
| CCN(C(=O)CCCN1CCOC1=O)c1cn(-c2cccnc2)nc1Cl [FA34, N-(3-Chloro-1-(pyridin-3-yl)-1H-pyrazol-4-yl)-N-ethyl-4-(2-oxooxazolidin-3-yl)butanamide] | 80 to 100 | 80 to 100 |
| CCOC(=O)N(C)CCC(=O)N(CC)c1cn(-c2cccnc2)nc1Cl [Compound F42, Ethyl (3-((3-chloro-1-(pyridin-3-yl)-1H-pyrazol-4-yl)(ethyl)amino)-3-oxopropyl)(methyl)carbamate] | 80 to 100 | 80 to 100 |
| CCN(C(=O)C1CN(C(C)=O)C1)c1cn(-c2cccnc2)nc1Cl [Compound P23, 1-Acetyl-N-(3-chloro-1-(pyridin-3-yl)-1H-pyrazol-4-yl)-N-ethylazetidine-3-carboxamide] | 80 to 100 | 80 to 100 |
| CN(C(=O)CN1CCCCC1=O)c1cn(-c2cccnc2)nc1Cl [Compound F77, N-(3-Chloro-1-(pyridin-3-yl)-1H-pyrazol-4-yl)-N-methyl-2-(2-oxopiperidin-1-yl)acetamide] | 80 to 100 | 80 to 100 |
| CCN(C(=O)C1CCCN(C(=O)CCC(F)(F)F)C1)c1cn(-c2cccnc2)nc1Cl (centres unmarked) [FA43, N-(3-Chloro-1-(pyridin-3-yl)-1H-pyrazol-4-yl)-N-ethyl-1-(4,4,4-trifluorobutanoyl)piperidine-3-carboxamide] | 80 to 100 | 80 to 100 |
| CCN(C(=O)C1CCCN(C(C)=O)C1)c1cn(-c2cccnc2)nc1Cl (centres unmarked) [FA45, 1-Acetyl-N-(3-chloro-1-(pyridin-3-yl)-1H-pyrazol-4-yl)-N-ethylpiperidine-3-carboxamide] | 0 to 80 | 80 to 100 |
| CCN(C(=O)C1CCN(C(=O)CCC#N)C1)c1cn(-c2cccnc2)nc1Cl (centres unmarked) [FA11, N-(3-Chloro-1-(pyridin-3-yl)-1H-pyrazol-4-yl)-1-(3-cyanopropanoyl)-N-ethylpyrrolidine-3-carboxamide] | 80 to 100 | 80 to 100 |
| CN(C)C(=O)CCC(=O)N(C)c1cn(-c2cccnc2)nc1Cl [Compound F25, N1-(3-Chloro-1-(pyridin-3-yl)-1H-pyrazol-4-yl)-N1,N4,N4-trimethyl succinimide] | 80 to 100 | 0 to 80 |
| CCN(C(=O)C(C)OC(C)=O)c1cn(-c2cccnc2)nc1Cl (centres unmarked) [Compound C12, 1-((3-chloro-1-(pyridin-3-yl)-1H-pyrazol-4-yl)(ethyl)amino)-1-oxopropan-2-yl acetate] | 80 to 100 | 80 to 100 |
| CC(=O)CCC(=O)N(C)c1cn(-c2cccnc2)nc1C [FA69, N-methyl-N-(3-methyl-1-(pyridin-3-yl)-1H-pyrazol-4-yl)-4-oxopentanamide] | 80 to 100 | 0 to 80 |
| CN(C(=O)Cn1ccccc1=O)c1cn(-c2cccnc2)nc1Cl [Compound F3, N-(3-Chloro-1-(pyridin-3-yl)-1H-pyrazol-4-yl)-N-methyl-2-(2-oxopyridin-1(2H)-yl)acetamide] | 80 to 100 | 80 to 100 |
| CCN(C(=O)C1CCN(C(=O)CCC(F)(F)F)C1)c1cn(-c2cccnc2)nc1Cl (centres unmarked) [FA10, N-(3-Chloro-1-(pyridin-3-yl)-1H-pyrazol-4-yl)-N-ethyl-1-(4,4,4-trifluorobutanoyl)pyrrolidine-3-carboxamide] | 80 to 100 | 80 to 100 |
| CCN(C(=O)CCC(=O)NCc1ccc(C)o1)c1cn(-c2cccnc2)nc1Cl [Compound F13, N1-(3-Chloro-1-(pyridin-3-yl)-1H-pyrazol-4-yl)-N1-ethyl-N4-((5-methylfuran-2-yl)methyl)succinamide] | 80 to 100 | 0 to 80 |
| CCN(C(=O)CC/C(C)=N\OCCC1CC1(F)F)c1cn(-c2cccnc2)nc1Cl (centres unmarked) [FA49, (Z)-N-(3-Chloro-1-(pyridin-3-yl)-1H-pyrazol-4-yl)-4-((2-(2,2-difluorocyclopropyl)ethoxy)imino)-N-ethylpentanamide] | 80 to 100 | 0 to 80 |
| CCN(C(=O)CC/C(=N\OCC1CC(F)(F)C1)c1cccs1)c1cn(-c2cccnc2)nc1Cl [FA30, (E)-N-(3-Chloro-1-(pyridin-3-yl)-1H-pyrazol-4-yl)-4-(((3,3-difluorocyclobutyl)methoxy)imino)-N-ethyl-4-(thiophen-2-yl)butanamide] | 0 to 80 | < 0 |
| CCN(C(=O)CCC1CN(CC2CC2(F)F)C1=O)c1cn(-c2cccnc2)nc1Cl (centres unmarked) [Compound F74, N-(3-Chloro-1-(pyridin-3-yl)-1H-pyrazol-4-yl)-3-1(1-((2,2-difluorocyclopropyl)methyl)-2-oxoazetidin-3-yl)-N-ethylpropanamide] | 80 to 100 | 80 to 100 |
| CCN(C(=O)CCC(=O)NCc1ccc(F)cc1)c1cn(-c2cccnc2)nc1Cl [Compound F80, N1-(3-Chloro-1-(pyridin-3-yl)-1H-pyrazol-4-yl)-N1-ethyl-N4-(4-fluorobenzyl)succinamide] | 80 to 100 | 0 to 80 |
| CCN(C(=O)CC1CCNC1=O)c1cn(-c2cccnc2)nc1Cl (centres unmarked) [FA63] | 80 to 100 | 80 to 100 |
| CC(=O)CCC(=O)N(C)c1cn(-c2cccnc2)nc1Cl [FA75, N-(3-Chloro-1-(pyridin-3-yl)-1H-pyrazol-4-yl)-N-methyl-4-oxopentanamide] | 80 to 100 | 0 to 80 |
| CCN(C(=O)CN1CCCC1=O)c1cn(-c2cccnc2)nc1Cl [Compound F124, N-(3-Chloro-1-(pyridin-3-yl)-1H-pyrazol-4-yl)-N-ethyl-2-(2-oxopyrrolidin-1-yl)acetamide] | 80 to 100 | 80 to 100 |
| CCN(C(=O)CCN(C(C)=O)C1CC1)c1cn(-c2cccnc2)nc1Cl [Compound F9, N-(3-Chloro-1-(pyridin-3-yl)-1H-pyrazol-4-yl)-3-(N-cyclopropylacetamido)-N-ethylpropanamide] | 0 to 80 | 80 to 100 |
| CCN(C(=O)CC/C(C)=N/O)c1cn(-c2cccnc2)nc1Cl [Compound F105, (E)-N-(3-chloro-1-(pyridin-3-yl)-1H-pyrazol-4-yl)-N-ethyl-4-(hydroxyimino) pentanamide] | 80 to 100 | 0 to 80 |
| CCN(C(=O)C1CCCCN1C(C)=O)c1cn(-c2cccnc2)nc1Cl (centres unmarked) [FA32, 1-Acetyl-N-(3-chloro-1-(pyridin-3-yl)-1H-pyrazol-4-yl)-N-ethylpiperidine-2-carboxamide] | 0 to 80 | 0 to 80 |
| CCN(C(=O)CCN1CCSC1=O)c1cn(-c2cccnc2)nc1Cl [Compound F88, N-(3-Chloro-1-(pyridin-3-yl)-1H-pyrazol-4-yl)-N-ethyl-3-(2-oxothiazolidin-3-yl)propanamide] | 80 to 100 | 0 to 80 |
| CCN(C(=O)C(C)Cl)c1cn(-c2cccnc2)nc1Cl (centres unmarked) [Compound C10, 2-Chloro-N-(3-chloro-1-(pyridin-3-yl)-1H-pyrazol-4-yl)-N-ethylpropanamide] | 80 to 100 | 80 to 100 |
